Results on 43 molecules are retold here after patent US11286268B1, “EIF4E-inhibiting compounds and methods” (EFFECTOR THERAPEUTICS, INC., priority 2019, dated 2022).

This assay concerns the target recombinant eIF4E (Homo sapiens (Human), UniProt P06730). The assay can be described thus: Fluorescence polarization competition assay for eIF4E binding potency. As to the method: Compounds were screened for eIF4E binding potency using a fluorescence polarization competition assay. All binding reactions were performed in fluorescence polarization buffer (FPB) containing 20 mM Tris pH 7.5, 100 mM NaCl, 1 mM DTT, and 0.02% Tween-20. Final binding reactions contained 75 nM recombinant eIF4E (Beryllium, custom order), 20 nM EDA-m^7GDP-ATTO-550 (Jena Bioscience, NU-827-550) and varying concentrations of the inhibitory compound of interest. Final DMSO concentration in each reaction was 1%.
eIF4E protein was pre-incubated with EDA-m^7GDP-ATTO-550 in FPB at 2× concentrations for 5 minutes prior to the addition of compounds. Compounds (100×) were prepared using 3-fold serial dilutions in 100% DMSO, and subsequently diluted 1:50 in FPB to produce 2× stocks. 50 μl of 2× eIF4E/EDA-m^7GDP-ATTO-550 were transferred to the wells of a 96-well half-area black flat bottom polystyrene plate. 50 μl of 2× test compound were added, and binding reactions were allowed to equilibrate for 30 minutes at room temperature while protected from light. The fluorescent polarization signal was detected using a Victor 2 multi-label counter (Perkin Elmer) and the concentration necessary to achieve inhibition of eIF4E/EDA-m^7GDP-ATTO-550 binding by 50% (IC50) was calculated using data from an 8-point compound dilution series.
In Table 4A, IC50 values of less than 0.05 μM are labelled as “+++”, from 1 to 0.05 μM are labelled as “++”, and greater than 1 μM are labelled as “+”. ND=not determined.

[1] abbreviates: fluorescence polarization competition, 75 nM recombinant eIF4E, 20 nM EDA-m7GDP-ATTO-550, IC50 class, read-out: elF4E FP.
Setting [2] is: inhibition of eIF4E/EDA-m7GDP-ATTO-550 binding by 50%, Table 4B calculated values, read-out: IC50.
[3] abbreviates: inhibition of eIF4E/EDA-m7GDP-ATTO-550 binding, calculated IC50 values, Table 4B, read-out: IC50.

Each structure is given as a SMILES string. Read-outs that look alike come from different tables or passages of the source.

recombinant eIF4E, sequence (P06730 whole entry): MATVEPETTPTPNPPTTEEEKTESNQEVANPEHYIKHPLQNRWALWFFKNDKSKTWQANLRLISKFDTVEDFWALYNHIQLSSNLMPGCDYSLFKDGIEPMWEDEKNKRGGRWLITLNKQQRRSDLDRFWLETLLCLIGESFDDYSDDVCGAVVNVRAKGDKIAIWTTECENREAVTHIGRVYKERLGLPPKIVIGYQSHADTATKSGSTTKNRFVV

In the case of `Cc1nc2c(F)c(CN(C)C)c(C(F)F)c(C#N)c2c(=O)n1CCOc1ccc(Cl)cc1-c1ccnc2c(C(=O)O)csc12` [compound 518], the IC50 reads like this: under setting [1], under 50 nM; under setting [2], 16.4 nM. In the case of `Cc1nc2cnc(CCN(C)CC(F)F)c(C#N)c2c(=O)n1CCOc1ccc(Cl)cc1-c1ccnc2c(C(=O)O)csc12` [compound 1485], the IC50 under setting [3] was 22.9 nM. Consider `Cc1cc(-c2cc(Cl)ccc2OCCn2c(C)nc3cc(C(F)(F)F)c(-n4cccn4)c(C#N)c3c2=O)c2scc(C(=O)O)c2n1` [compound 633], for which the IC50 under setting [1] was under 50 nM and the IC50 under setting [2] was 12.9 nM. As to `COc1ccc(-c2csc3c(-c4cc(Cl)ccc4OCCn4c(C)nc5cnc(N6CCN(C)CC6)c(C#N)c5c4=O)ccnc23)cc1` [compound 1268], the IC50 under setting [3] is 472 nM. With `Cc1cc(-c2cc(Cl)ccc2OCCn2c(C)nc3c(C)nc(-c4cc(F)cnc4C)c(C#N)c3c2=O)c2scc(C(=O)O)c2n1` [compound 441], the IC50 runs as follows: under setting [1], under 50 nM; under setting [2], 20.4 nM.

Regarding `Cc1cc(-c2cc(Cl)ccc2OCCn2c(C)nc3cnc(N(C)C4CCN(CC(C)(F)F)CC4)c(C#N)c3c2=O)c2scc(C(=O)O)c2n1` [compound 1563], under setting [3], the IC50 is 13 nM. Regarding `Cc1cc(-c2cc(Cl)ccc2OCCn2c(C)nc3cc(C(F)(F)F)c(N4CCN(C)CC4=O)c(C#N)c3c2=O)c2scc(C(=O)O)c2n1` [compound 1075], the IC50 is, setting by setting: under setting [1], under 50 nM; under setting [2], 6.64 nM. On to `Cc1nc2ccc(F)c(C#N)c2c(=O)n1CCOc1ccc(Cl)cc1-c1ccnc2c(C(=O)O)csc12` [compound 245], for which the IC50 was under 50 nM under setting [1] and 25.6 nM under setting [2].

For `Cc1nc2cc(C(F)(F)F)cc(C#N)c2c(=O)n1CCOc1cnc(Cl)nc1-c1ccnc2c(C(=O)O)csc12` [compound 454], the IC50 reads like this: under setting [1], 50 to 1000 nM; under setting [2], 51.1 nM.

As for `O=C(O)c1cccc(-c2cc(Cl)ccc2OCCn2cnc3cc(F)cc(F)c3c2=O)c1` [compound 78], the IC50 by setting is: under setting [1], over 1000 nM; under setting [2], 1630 nM.

In the case of `CCc1ncc2nc(C)n(CCOc3ccc(Cl)cc3-c3cc(C)nc4c(C(=O)O)csc34)c(=O)c2c1C#N` [compound 923], the IC50 is under 50 nM under setting [1] and 3.71 nM under setting [2]. In the case of `O=C(O)c1cccc(-c2cc(Cl)ccc2OCCn2ccc3ncncc3c2=O)c1` [compound 14], the IC50 was over 1000 nM under setting [1] and over 3000 nM under setting [2].

`Cc1cc(-c2cc(Cl)ccc2OCCn2c(C)nc3cc(CN(C)C)c(OC(C)C)c(C#N)c3c2=O)c2scc(C(=O)O)c2n1` [compound 370]: the IC50 reads like this: under setting [1], under 50 nM; under setting [2], 12.1 nM.

With `Cc1cc(-c2cc(Cl)ccc2OCCn2c(C)nc3cc4c(c(C#N)c3c2=O)CCNC4)c2scc(C(=O)O)c2n1` [compound 334], the IC50 under setting [1] is under 50 nM and the IC50 under setting [2] is 10.4 nM. In the case of `Cc1cc(-c2cc(Cl)ccc2OCCn2c(C)nc3cnc(N(C)CC(F)F)c(C#N)c3c2=O)c2scc(C(=O)O)c2n1` [compound 973], the IC50 under setting [1] lay within 50 to 1000 nM and the IC50 under setting [2] is 85 nM. For `Cc1nc2cnc(N(C)C3CCN(CC(F)(F)C4CC4)CC3)c(C#N)c2c(=O)n1CCOc1ccc(Cl)cc1-c1ccnc2c(C(=O)O)csc12` [compound 1126], the IC50 is under 50 nM under setting [1] and 26.6 nM under setting [2]. In the same order, the values of `Cc1c(C(F)(F)F)cc2nc(C)n(CCOc3ccc(Cl)cc3-c3ccnc4c(C(=O)O)csc34)c(=O)c2c1C#N` [compound 415] are under 50 nM and 14.3 nM. For the molecule `CC(=O)c1cnn2c(-c3cc(Cl)ccc3OCCn3c(C)nc4cc(C(F)(F)F)cc(C#N)c4c3=O)cc(C)nc12` [compound 414], the IC50 is under 50 nM under setting [1] and 20.5 nM under setting [2]. Turning to `Cc1nc2cnc(N(C)C3CCN(CC(F)(F)CO)CC3)c(C#N)c2c(=O)n1CC#Cc1ccc(Cl)cc1-c1ccnc2c(C(=O)O)csc12` [compound 1132], the IC50 is, setting by setting: under setting [1], under 50 nM; under setting [2], 13.3 nM. Consider `Cc1nc2cnc(-c3ccc(CN(C)C)nc3)c(C#N)c2c(=O)n1CCOc1ccc(Cl)cc1-c1ccnc2c(C(=O)O)csc12` [compound 1325], for which, under setting [3], the IC50 was 27.1 nM. For `COc1cc(-c2cc(Cl)ccc2OCCn2c(C)nc3cc(C(F)(F)F)c(CN4CCN(C)CC4)c(C#N)c3c2=O)c2scc(C(=O)O)c2n1` [compound 638], the IC50 is under 50 nM under setting [1] and 4.46 nM under setting [2]. On to `Cc1nc2cnc(N(C)C3CCN(CC(C)F)CC3)c(C#N)c2c(=O)n1CCOc1ccc(Cl)cc1-c1ccnc2c(C(=O)O)csc12` (stereo not drawn) [compound 1654], for which, under setting [3], the IC50 is 21 nM.

With `Cc1nc2cnc(C3=CCC(N(C)CC(F)F)CC3)c(C#N)c2c(=O)n1CC#Cc1ccc(Cl)cc1-c1ccnc2c(C(=O)O)csc12` (stereo not drawn) [compound 1573], under setting [3], the IC50 was 22.2 nM. For `Cc1cc(-c2cc(Cl)ccc2OCCn2c(C)nc3cnc(C4CC4(F)F)c(C#N)c3c2=O)c2scc(C(=O)O)c2n1` (stereo not drawn) [compound 807], the IC50 under setting [1] is under 50 nM.

For the molecule `Cc1nc2cc(OC(F)F)c(C#N)c(C#N)c2c(=O)n1CCOc1ccc(Cl)cc1-c1ccnc2c(C(=O)O)csc12` [compound 538], the IC50 runs as follows: under setting [1], under 50 nM; under setting [2], 22.3 nM. Regarding `CCC#Cc1c(C(=O)O)cccc1-c1cc(Cl)ccc1OCCn1c(C(F)F)nc2cccc(C#N)c2c1=O` [compound 1987], the IC50 under setting [3] is 1290 nM.

For `Cc1nc2cnc(N(C)C3CCN(CC(C)(F)F)CC3)c(C#N)c2c(=O)n1CC#Cc1ccc(Cl)cc1-c1ccnc2c(C(=O)NS(=O)(=O)c3ccn(C)n3)csc12` [compound 1676], the IC50 under setting [3] is 4.33 nM. On to `CCC(F)(F)CN1CCC(N(C)c2ncc3nc(C)n(COCc4ccc(Cl)cc4-c4ccnc5c(C(=O)O)csc45)c(=O)c3c2C#N)CC1` [compound 1168], for which the IC50 under setting [1] was under 50 nM and the IC50 under setting [2] was 13 nM. As for `Cc1cc(-c2cc(Cl)ccc2OCCn2c(C)nc3cc(C(F)(F)F)c(CN4CCN(C)CC4)c(C#N)c3c2=O)c2scc(C(=O)O)c2n1` [compound 485], the IC50 is, setting by setting: under setting [1], under 50 nM; under setting [2], 8.59 nM.

For `Cc1nc2cc(Cl)cc(C#N)c2c(=O)n1CCOc1ccc(Cl)cc1-c1ccnc2c(C(=O)O)csc12` [compound 200], the IC50 under setting [1] is under 50 nM and the IC50 under setting [2] was 43.5 nM.

For `Cc1cc(-c2cc(Cl)ccc2OCCn2c(C)nc3c(F)cc(C(F)F)c(C#N)c3c2=O)c2scc(C(=O)NC(=O)N(C)C)c2n1` [compound 594], the IC50 by setting is: under setting [1], over 1000 nM; under setting [2], 1350 nM.

As to `Cc1nc2cnc(N3CCN4CCC3C4)c(C#N)c2c(=O)n1CCOc1ccc(Cl)cc1-c1ccnc2c(C(=O)O)csc12` (stereo not drawn) [compound 1348], the IC50 under setting [3] is 12.2 nM. In the case of `O=C(O)c1cccc(-c2cc(Cl)ccc2OCCc2ccnc3nc(Nc4ccccc4)[nH]c(=O)c23)c1` [compound 176], the IC50 by setting is: under setting [1], under 50 nM; under setting [2], 41.5 nM.

Take `Cc1nc2cnc(N(C)C3CCN([C@H]4C[C@H](F)C4)CC3)c(C#N)c2c(=O)n1CC#Cc1ccc(Cl)cc1-c1ccnc2c(C(=O)NS(C)(=O)=O)csc12` [compound 1602]: the IC50 under setting [3] is 3.88 nM. Consider `Cc1nc2cnc(N(C)C3CCN(CC(C)(C)F)CC3)c(C#N)c2c(=O)n1CCOc1ccc(Cl)cc1-c1ccnc2c(C(=O)O)csc12` [compound 1655], for which the IC50 under setting [3] is 13.4 nM.

For the molecule `Cc1cc(-c2cc(Cl)ccc2OCCn2c(C)nc3cc(Cl)c(N4CCN(C(C)(C)C)CC4)c(C#N)c3c2=O)c2sc(C)c(C(=O)O)c2n1` [compound 1201], the IC50 by setting is: under setting [1], under 50 nM; under setting [3], 22.8 nM. On to `Cc1nc2cnc(N(C)C3CCN(C4CC(F)(F)C4)CC3)c(C#N)c2c(=O)n1CC#Cc1ccc(Cl)cc1-c1ccnc2c(C(=O)NS(=O)(=O)c3cccnc3)csc12` [compound 1110], for which the IC50 was under 50 nM under setting [1] and 7.2 nM under setting [2].

In the case of `Cc1nc2cnc(N3CCN(C(C)(C)CC#N)CC3)c(C#N)c2c(=O)n1CC#Cc1ccc(Cl)cc1-c1ccnc2c(C(=O)O)csc12` [compound 1367], the IC50 under setting [3] is 14.9 nM. As for `Cc1cc(-c2cc(Cl)ccc2OCCn2c(C)nc3cc(C(F)(F)F)c(N4CCN(C)CC4)c(C#N)c3c2=O)cc(C(=O)O)n1` [compound 1222], the IC50 reads like this: under setting [1], under 50 nM; under setting [3], 3.02 nM. Take `Cc1nc2cnc(C3CN(C)CCO3)c(C#N)c2c(=O)n1CCOc1ccc(Cl)cc1-c1ccnc2c(C(=O)O)csc12` (stereo not drawn) [compound 1330]: the IC50 under setting [3] is 13 nM. As for `Cc1nc2cc(C(F)(F)F)c(CN3CCN(C)CC3)c(C#N)c2c(=O)n1CCOc1ccc(Cl)cc1-c1cc(CF)nc2c(C(=O)O)csc12` [compound 645], the IC50 reads like this: under setting [1], under 50 nM; under setting [2], 31.3 nM. Take `Cc1cc(-c2cc(Cl)ccc2OCCn2c(C)nc3cc(C(F)(F)F)c(N4CCN(CCF)CC4)c(C#N)c3c2=O)c2scc(C(=O)O)c2n1` [compound 430]: the IC50 under setting [1] was under 50 nM and the IC50 under setting [2] was 9 nM. Regarding `COc1cc2nc(C)n(CCOc3ccc(Cl)cc3-c3cc(C)nc4c(C(=O)O)c(C)sc34)c(=O)c2c(C#N)c1N1CCN(C)CC1` [compound 1208], the IC50 under setting [1] is under 50 nM and the IC50 under setting [3] was 48.9 nM.
